Some test systems named below: A498 renal; CAKI-1 renal; HL-60(TB) leukemia; IGROV1 ovarian; MDA-N; NCI/ADR-RES ovarian; OVCAR-4 ovarian; OVCAR-5 ovarian; SF-268 CNS; SN12C renal.
Holding throughout (test): NCI-60 cell line screen, 48 h

The source of these data is PubChem BioAssay (NCI).

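96-well plates; 48 h exposure; 5 concentrations. Endpoints by linear interpolation between flanking doses. Not reached: highest tested concentration assigned. TGI: concentration producing complete growth inhibition.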 Bounds are passed on as bounds.

For the compound `COC(=O)C(I(OS(=O)(=O)c1ccc(C)cc1)c1ccccc1)=P(c1ccccc1)(c1ccccc1)c1ccccc1`, the TGI is 44.7 µM in the test with A498 renal; over 100 µM in the test on CAKI-1 renal; 45.5 µM with HL-60(TB) leukemia; 37.7 µM with IGROV1 ovarian; 31.5 µM in the test on MDA-N; over 100 µM in the test with NCI/ADR-RES ovarian. Also, the TGI was 27 µM in the test on OVCAR-4 ovarian, 73.1 µM in the test with OVCAR-5 ovarian, 33.4 µM in the test on SF-268 CNS and over 100 µM with SN12C renal.

Take `Cc1ccc(-n2cc(-c3ccc(Cl)cc3)c3c(NNC(=S)NCc4ccccc4)ncnc32)cc1`: the TGI was 82.1 µM with A498 renal; 29.1 µM with CAKI-1 renal; over 100 µM in the test on HL-60(TB) leukemia; 54.4 µM in the test on IGROV1 ovarian; over 100 µM in the test on MDA-N; 32.8 µM in the test with NCI/ADR-RES ovarian. The TGI was over 100 µM in the test on OVCAR-4 ovarian, 48.6 µM in the test on OVCAR-5 ovarian, over 100 µM in the test with SF-268 CNS and 24.3 µM in the test with SN12C renal.

On to `Clc1ccc(CCN2CCN(CCCc3ccccc3)CC2)cc1Cl`, for which the TGI with A498 renal was determined as 30 µM; in the test on CAKI-1 renal it was 33.8 µM; in the test on HL-60(TB) leukemia it was 44.7 µM; in the test on IGROV1 ovarian, 31.3 µM; with MDA-N, 31.4 µM; in the test with NCI/ADR-RES ovarian it was 28.5 µM. The TGI with OVCAR-4 ovarian was 31.4 µM; with OVCAR-5 ovarian, 29.9 µM; in the test with SF-268 CNS it was 35.3 µM; in the test with SN12C renal, 29.8 µM.

For the compound `O=c1[nH]/c(=C/c2ccc(OCc3ccccc3)cn2)c(=O)[nH]/c1=C/c1cccnc1`, the TGI was 6.46 µM with A498 renal; over 100 µM in the test with CAKI-1 renal; 0.541 µM with HL-60(TB) leukemia; 0.71 µM with MDA-N; 1.33 µM in the test on NCI/ADR-RES ovarian; over 61.5 µM in the test on OVCAR-4 ovarian. Moreover, the results for the TGI in the test with OVCAR-5 ovarian and in the test with SF-268 CNS were over 100 µM and over 35 µM, respectively.

Turning to `COc1cc(C2c3cc4c(c(O)c3C(=O)C3CCC(=O)N32)OCO4)cc(OC)c1OC` (centres undefined), the TGI with A498 renal is over 100 µM; in the test with CAKI-1 renal it was over 100 µM; in the test with HL-60(TB) leukemia, over 100 µM; in the test on IGROV1 ovarian it was over 100 µM; in the test with MDA-N, 91.9 µM; in the test on NCI/ADR-RES ovarian it was over 100 µM. The TGI in the test on OVCAR-4 ovarian, in the test with OVCAR-5 ovarian, in the test on SF-268 CNS and in the test on SN12C renal was over 100 µM throughout.

Regarding `CCC(c1ccc(N(C)C)cc1)C1NC(=S)NC1=O` (centres undefined), the TGI with A498 renal is over 100 µM; with CAKI-1 renal, over 100 µM; in the test on HL-60(TB) leukemia it was 46.3 µM; in the test on IGROV1 ovarian, over 100 µM; in the test with MDA-N it was over 100 µM; in the test on NCI/ADR-RES ovarian, over 100 µM. Also, the TGI in the test on OVCAR-4 ovarian, in the test on OVCAR-5 ovarian, in the test on SF-268 CNS and in the test with SN12C renal was over 100 µM in each case.

In the case of `O=S(=O)(N1CCCCN(S(=O)(=O)C(F)(F)F)CCCN(S(=O)(=O)C(F)(F)F)CCCN(S(=O)(=O)C(F)(F)F)CCCCN(S(=O)(=O)C(F)(F)F)CCCN(S(=O)(=O)C(F)(F)F)CCC1)C(F)(F)F`, the TGI with A498 renal, in the test on CAKI-1 renal, in the test with HL-60(TB) leukemia, with IGROV1 ovarian, with MDA-N and in the test with NCI/ADR-RES ovarian was over 100 µM throughout. Also, the TGI in the test on OVCAR-4 ovarian, with OVCAR-5 ovarian, in the test on SF-268 CNS and in the test on SN12C renal was over 100 µM throughout.

Regarding `COc1cc(OC)cc(N(C)Cc2cnc3nc(N)nc(N)c3c2C)c1`, the TGI in the test on A498 renal, in the test with CAKI-1 renal, in the test on HL-60(TB) leukemia, in the test on IGROV1 ovarian, in the test on MDA-N and in the test with NCI/ADR-RES ovarian was over 100 µM in each case. The TGI in the test with OVCAR-4 ovarian, in the test with OVCAR-5 ovarian, in the test on SF-268 CNS and in the test with SN12C renal was over 100 µM in each case.

`CC(C)(C)OC(=O)NCCNC(=O)OCc1ccccc1`: the TGI in the test with CAKI-1 renal, in the test with IGROV1 ovarian, with MDA-N, with NCI/ADR-RES ovarian, in the test with OVCAR-5 ovarian and in the test with SF-268 CNS was over 100 µM in each case. The same compound displayed a TGI in the test on SN12C renal of over 100 µM.

As to `CCOC(=O)C1C(=O)C=C(c2cc(C)ccc2O)CC1c1cccc(Br)c1` (centres undefined), the TGI in the test with CAKI-1 renal was 80.5 µM; with HL-60(TB) leukemia, 44.2 µM; in the test with IGROV1 ovarian, 39.5 µM; with MDA-N, 21.2 µM; in the test with NCI/ADR-RES ovarian it was 46.1 µM; with OVCAR-4 ovarian, 5.17 µM. Besides, the TGI with OVCAR-5 ovarian was 68.9 µM; in the test on SF-268 CNS, 77.9 µM; in the test on SN12C renal, 33.1 µM.

Turning to `O=C1NC(N2CCCC(CO)C2)=N/C1=C\c1ccc(O)cc1` (centres undefined), the TGI with CAKI-1 renal, in the test on HL-60(TB) leukemia, with IGROV1 ovarian, in the test with MDA-N, in the test on NCI/ADR-RES ovarian and in the test with OVCAR-4 ovarian was over 100 µM in each case. For the same compound, the TGI in the test with OVCAR-5 ovarian, in the test with SF-268 CNS and in the test with SN12C renal was over 100 µM each time.

Take `CCC1(CC)C(=O)N(C(=O)c2ccc(Cl)cc2)N(C(=O)c2ccccc2Cl)C1=O`: the TGI in the test with CAKI-1 renal was over 100 µM; in the test with HL-60(TB) leukemia, over 100 µM; in the test with IGROV1 ovarian, 16.3 µM; in the test on MDA-N it was over 100 µM; with NCI/ADR-RES ovarian it was over 100 µM; in the test with OVCAR-4 ovarian, over 100 µM. Further, the TGI with OVCAR-5 ovarian, in the test with SF-268 CNS and with SN12C renal was over 100 µM throughout.

Consider `COc1cccc2c(NNc3ccc(Cl)cc3)c3ccc([N+](=O)[O-])cc3nc12`, for which the TGI with A498 renal is 33.2 µM; in the test on CAKI-1 renal, 15.2 µM; in the test on HL-60(TB) leukemia it was 28.8 µM; with MDA-N it was over 100 µM; in the test on OVCAR-4 ovarian it was 30.9 µM; in the test with OVCAR-5 ovarian, 91.9 µM. Moreover, the TGI with SF-268 CNS was found to be 28.1 µM; in the test with SN12C renal it was 75.3 µM.

For the compound `COc1cc(C=Nc2ccc(Oc3ccc(Cl)cc3)c(Cl)c2)cc(OC)c1OC`, the TGI in the test with CAKI-1 renal stood at 72 µM; with HL-60(TB) leukemia, 48.6 µM; with IGROV1 ovarian, 67.1 µM; in the test with MDA-N it was 51.3 µM; in the test with NCI/ADR-RES ovarian, 48.8 µM; with OVCAR-4 ovarian, 62.3 µM. Further, the results for the TGI with OVCAR-5 ovarian, in the test with SF-268 CNS and with SN12C renal were over 100 µM, 30.5 µM and 40.3 µM, respectively.
